# Measured values taken from US8765746B2 (Millennium Pharmaceuticals, Inc., priority 2010, dated 2014).
# pIC50: −log10 of the molar value.
# Legend:
# Assay type in all cases: biochemical
# PI3Kalpha = target: T1, PI3Kalpha (Homo sapiens, UniProt P42336); experiment: Human PI3Kα enzyme assay (HTRF); details: for inhibition at 1.11 µM: read-out: PI3Kalpha % inh; for PI3Kalpha % inh: at 1.11 μM
# T1 construct: His (N); host or cells: SF9 insect cells (baculovirus)
# From the text: (§1) The catalytic subunits of PI3Ks are cloned into either pDEST8(p110 alpha) or pDEST10(p110beta, p110delta, and p110gamma) as N-terminal His tagged fusion proteins using the Gateway system (Invitrogen, catalog#11804-010 for pDEST8 and 11806-015 for pDEST10). The sequences are verified before recombinant protein expression using the Baculovirus Expression System with Gateway® Technology. The accession numbers for the subunits are as follows:
# (§2) The regulatory subunits of PI3Ks are cloned into pDEST8 as un-tagged protein using the Gateway system (Catalog#11804-010). The sequences are verified before recombinant protein expression using the Baculovirus Expression System with Gateway® Technology. The accession numbers for the subunits are as follows:
# (§3) For expression of the p110 complexes, the p85 (MOI of 4) is co-infected with p110 alpha, beta, and delta respectively (1MOI) in SF9 cells and harvested at 60 hours post co-infection. P110 gamma was infected at 1 MOI and harvested at 60 hours post infection.
# (§4) For purification, PI3Ks are purified by Ni-NTA Agarose (Qiagen #30250) followed by Mono Q 10/100 GL (Ge Healthcare #17-5167-01). VPS34 is purified by Glutathione Sepharose 4 Fast Flow (GE Healthcare #17-5132-03) followed by HiTrap Q (GE Healthcare #17-1153-01).
# 1) Human PI3Kα enzyme assay method
# (§5) 0.5 uL compounds in DMSO are added to wells of a 384 well microtitre plate (Corning 3575). At room temperature: 10 ul PI3K reaction buffer (50 mM Hepes, 5 mM DTT, 150 mM NaCl, 10 mM beta-glycerophosphate, 10 mM MgCl2, 0.25 mM sodium cholate and 0.001% CHAPS, pH 7.00) containing ATP (25 uM, Promega) is added followed immediately by 10 ul PI3K reaction buffer containing di-C8 PI(4,5)P2 (3.5 uM, CellSignals) and PI3Kalpha (0.4875 nM, Millennium Protein Sciences Group) and the mixture is incubated with shaking at room temperature for 30 minutes. Then 5 ul PI3K stop mix (50 mM Hepes, 5 mM DTT, 150 mM NaCl, 0.01% Tween-20, 15 mM EDTA and 25 nM biotin-PI(3,4,5)P3 (Echelon) is added to quench the reaction followed immediately by addition of 5 ul HTRF detection mix (50 mM Hepes, 5 mM DTT, 150 mM NaCl, 0.01% Tween-20, 40 mM KF, 10 nM GST:GRP-1 PH domain (Millennium Protein Sciences Group), 15 nM Streptavidin-XL (CisBio) and 0.375 nM anti-GST Eu++ antibody (CisBio) at pH 7.00). The plates are then incubated for 1 hour at room temperature with shaking and then read on a BMG PheraStar Plus reader.
# PI3Kbeta = target: T2, PI3Kbeta (Homo sapiens, UniProt P42338); experiment: Human PI3K beta enzyme assay (HTRF, as for PI3K alpha); details: for inhibition at 1.11 µM: read-out: PI3Kbeta % inh; for pIC50: read-out: IC50 (inhibit PI3Kbeta); for inhibition at 1.11 µM / PI3Kbeta % inh: at 1.11 μM
# T2 construct: His (N); host or cells: SF9 insect cells (baculovirus)
# From the text: as §1, §2, §3, §4, §5
# (§6) 2) Human PI3K beta, delta and gamma isoforms are tested using the procedure described for PI3K alpha above but with the following changes: PI3K beta (5.25 nM), PI3K delta (0.75 nM) and PI3K gamma (5 nM). All isoforms supplied by Millennium Protein Science Group.
# PI3Kgamma = target: T3, PI3Kgamma (Homo sapiens, UniProt P48736); experiment: Human PI3K gamma enzyme assay (HTRF, as for PI3K alpha); details: for inhibition at 1.11 µM: read-out: PI3Kgamma % inh; for PI3Kgamma % inh: at 1.11 μM
# T3 construct: His (N); host or cells: SF9 insect cells (baculovirus)
# From the text: as §1, §2, §3, §4, §5, §6
# VPS34 = target: T4, VPS34 (Homo sapiens, UniProt Q8NEB9); experiment: Human VPS34 enzyme assay (Adapta Universal Kinase Assay); details: for inhibition at 1.11 µM: 1 h, read-out: VPS34 % ihn; for VPS34 % ihn: at 1.11 μM
# T4 construct: GST (N); host or cells: SF9 insect cells (baculovirus)
# Experimental: VPS34 (accession number GB:BC033004) is cloned into pDEST20-Thombin as N-terminal GST tagged fusion proteins using the Gateway system (Invitrogen, catalog#11804-013). The sequences are verified before recombinant protein expression using the Baculovirus Expression System with Gateway® Technology.
# For expression VPS34 was infected at 1MOI in SF9 cells and harvested 72 hours post infection.
# For purification, VPS34 is purified by Glutathione Sepharose 4 Fast Flow (GE Healthcare #17-5132-03) followed by HiTrap Q (GE Healthcare #17-1153-01).
# 3) VPS34 is assayed using Adapta™ Universal Kinase Assay Kit (Invitrogen).
# 4) Human VPS34 enzyme assay method
# […] compounds in DMSO are added to wells of a 384 well microtitre plate (Greiner 780076). At room temperature: 5 ul VPS34 reaction buffer (Invitrogen Assay Buffer Q (diluted 1 in 5 with nanopure water) plus 2 mM DTT and 2 mM MnCl2) containing ATP (20 uM, Promega) and 200 uM PI-PS substrate (Invitrogen PV5122) is added followed immediately by 5 ul VPS34 reaction buffer (as above) containing VPS34 (5 nM, Millennium Protein Sciences Group) and the mixture is incubated with shaking at room temperature for 1 hour. Then 5 ul VPS34 stop-detect mix (as per Invitrogen Adapta Assay kit (PV5009) instructions (contains kinase quench buffer, TR-FRET buffer, Adapta Eu anti-ADP antibody and Alexa Fluor 647 ADP tracer)) is added to quench the reaction. The plates are then incubated for 30 minutes at room temperature with shaking and then read on a BMG PheraStar Plus reader.
# PI3Kdelta = target: T5, PI3Kdelta (Homo sapiens, UniProt O00329); experiment: Human PI3K delta enzyme assay (HTRF, as for PI3K alpha); details: for inhibition at 1.11 µM: read-out: PI3Kdelta % inh; for PI3Kdelta % inh: at 1.11 μM
# T5 construct: His (N); host or cells: SF9 insect cells (baculovirus)
# From the text: as §1, §2, §3, §4, §5, §6
# T1 sequence (P42336 whole entry): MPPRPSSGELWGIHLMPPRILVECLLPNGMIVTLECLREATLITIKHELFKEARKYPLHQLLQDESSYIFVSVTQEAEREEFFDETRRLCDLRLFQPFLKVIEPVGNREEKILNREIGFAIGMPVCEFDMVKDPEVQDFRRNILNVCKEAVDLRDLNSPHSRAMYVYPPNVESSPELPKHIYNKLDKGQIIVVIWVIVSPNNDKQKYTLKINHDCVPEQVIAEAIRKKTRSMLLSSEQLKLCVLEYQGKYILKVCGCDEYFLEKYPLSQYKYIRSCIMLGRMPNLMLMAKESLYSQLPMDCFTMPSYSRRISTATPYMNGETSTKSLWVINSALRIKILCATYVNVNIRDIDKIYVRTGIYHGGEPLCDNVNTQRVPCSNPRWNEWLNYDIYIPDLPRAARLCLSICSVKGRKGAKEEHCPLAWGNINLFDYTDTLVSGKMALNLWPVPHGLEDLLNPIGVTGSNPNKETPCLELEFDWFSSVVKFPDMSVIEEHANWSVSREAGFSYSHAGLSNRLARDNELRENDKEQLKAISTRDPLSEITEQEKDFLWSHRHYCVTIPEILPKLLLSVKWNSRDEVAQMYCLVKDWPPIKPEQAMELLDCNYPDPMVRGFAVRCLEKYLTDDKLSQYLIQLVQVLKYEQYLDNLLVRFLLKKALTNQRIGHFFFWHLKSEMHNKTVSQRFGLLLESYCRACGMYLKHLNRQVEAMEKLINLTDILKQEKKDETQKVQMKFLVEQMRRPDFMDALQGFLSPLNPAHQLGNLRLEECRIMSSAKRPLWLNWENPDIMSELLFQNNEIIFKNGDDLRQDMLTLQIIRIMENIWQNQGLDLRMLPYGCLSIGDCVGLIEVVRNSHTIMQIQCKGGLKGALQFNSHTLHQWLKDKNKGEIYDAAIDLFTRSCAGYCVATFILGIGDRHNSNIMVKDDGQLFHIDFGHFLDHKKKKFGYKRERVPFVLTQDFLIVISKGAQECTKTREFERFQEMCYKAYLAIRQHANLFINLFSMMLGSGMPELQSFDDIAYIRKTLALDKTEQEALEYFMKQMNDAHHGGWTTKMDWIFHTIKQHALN
# T1 sequence (P27986 whole entry partner): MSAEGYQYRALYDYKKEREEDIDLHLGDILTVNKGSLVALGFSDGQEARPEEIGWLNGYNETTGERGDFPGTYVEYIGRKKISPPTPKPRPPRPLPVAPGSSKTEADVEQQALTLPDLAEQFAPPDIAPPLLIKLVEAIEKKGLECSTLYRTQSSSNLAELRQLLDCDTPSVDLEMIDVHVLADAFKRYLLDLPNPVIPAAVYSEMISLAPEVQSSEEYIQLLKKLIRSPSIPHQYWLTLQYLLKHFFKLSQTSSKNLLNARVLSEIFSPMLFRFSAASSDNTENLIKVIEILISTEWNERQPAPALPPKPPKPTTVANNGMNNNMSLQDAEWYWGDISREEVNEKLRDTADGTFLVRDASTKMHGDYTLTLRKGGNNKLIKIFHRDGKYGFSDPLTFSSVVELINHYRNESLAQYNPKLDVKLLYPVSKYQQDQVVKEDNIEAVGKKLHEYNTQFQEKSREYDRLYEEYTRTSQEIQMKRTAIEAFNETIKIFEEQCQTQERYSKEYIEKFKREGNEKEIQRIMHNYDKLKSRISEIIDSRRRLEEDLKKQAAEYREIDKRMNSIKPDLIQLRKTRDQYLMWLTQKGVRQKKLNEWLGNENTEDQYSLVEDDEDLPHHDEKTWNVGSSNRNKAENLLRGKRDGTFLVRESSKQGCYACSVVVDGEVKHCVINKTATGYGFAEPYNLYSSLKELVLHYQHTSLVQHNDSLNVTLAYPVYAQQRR
# T3 sequence (P48736 whole entry): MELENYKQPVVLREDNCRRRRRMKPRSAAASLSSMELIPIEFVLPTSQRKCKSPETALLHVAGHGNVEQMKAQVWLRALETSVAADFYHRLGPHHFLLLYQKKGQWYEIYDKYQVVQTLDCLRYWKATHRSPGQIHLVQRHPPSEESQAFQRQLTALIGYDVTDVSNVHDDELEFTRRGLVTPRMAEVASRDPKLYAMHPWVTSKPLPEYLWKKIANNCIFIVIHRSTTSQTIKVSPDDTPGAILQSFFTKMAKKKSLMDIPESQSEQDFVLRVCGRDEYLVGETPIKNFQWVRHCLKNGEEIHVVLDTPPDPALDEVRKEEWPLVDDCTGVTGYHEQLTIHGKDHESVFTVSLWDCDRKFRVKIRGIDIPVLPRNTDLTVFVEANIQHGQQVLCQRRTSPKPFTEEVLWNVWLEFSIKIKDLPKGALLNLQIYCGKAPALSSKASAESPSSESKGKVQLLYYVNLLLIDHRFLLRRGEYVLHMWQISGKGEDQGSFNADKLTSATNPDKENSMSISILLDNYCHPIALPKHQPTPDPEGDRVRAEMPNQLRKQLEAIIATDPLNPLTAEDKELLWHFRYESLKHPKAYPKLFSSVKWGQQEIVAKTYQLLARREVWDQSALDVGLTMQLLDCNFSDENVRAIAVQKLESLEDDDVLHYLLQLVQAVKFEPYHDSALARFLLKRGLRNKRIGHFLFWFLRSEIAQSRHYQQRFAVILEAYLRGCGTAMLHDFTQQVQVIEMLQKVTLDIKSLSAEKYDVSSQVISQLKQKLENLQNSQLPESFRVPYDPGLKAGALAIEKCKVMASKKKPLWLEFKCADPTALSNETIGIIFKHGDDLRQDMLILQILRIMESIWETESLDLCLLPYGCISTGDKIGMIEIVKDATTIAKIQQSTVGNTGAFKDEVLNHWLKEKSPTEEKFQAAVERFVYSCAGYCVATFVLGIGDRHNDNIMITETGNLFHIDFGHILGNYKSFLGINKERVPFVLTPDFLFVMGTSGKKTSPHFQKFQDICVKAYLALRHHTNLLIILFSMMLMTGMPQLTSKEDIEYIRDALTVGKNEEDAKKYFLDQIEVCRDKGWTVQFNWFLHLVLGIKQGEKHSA
# T2 sequence (P42338 whole entry): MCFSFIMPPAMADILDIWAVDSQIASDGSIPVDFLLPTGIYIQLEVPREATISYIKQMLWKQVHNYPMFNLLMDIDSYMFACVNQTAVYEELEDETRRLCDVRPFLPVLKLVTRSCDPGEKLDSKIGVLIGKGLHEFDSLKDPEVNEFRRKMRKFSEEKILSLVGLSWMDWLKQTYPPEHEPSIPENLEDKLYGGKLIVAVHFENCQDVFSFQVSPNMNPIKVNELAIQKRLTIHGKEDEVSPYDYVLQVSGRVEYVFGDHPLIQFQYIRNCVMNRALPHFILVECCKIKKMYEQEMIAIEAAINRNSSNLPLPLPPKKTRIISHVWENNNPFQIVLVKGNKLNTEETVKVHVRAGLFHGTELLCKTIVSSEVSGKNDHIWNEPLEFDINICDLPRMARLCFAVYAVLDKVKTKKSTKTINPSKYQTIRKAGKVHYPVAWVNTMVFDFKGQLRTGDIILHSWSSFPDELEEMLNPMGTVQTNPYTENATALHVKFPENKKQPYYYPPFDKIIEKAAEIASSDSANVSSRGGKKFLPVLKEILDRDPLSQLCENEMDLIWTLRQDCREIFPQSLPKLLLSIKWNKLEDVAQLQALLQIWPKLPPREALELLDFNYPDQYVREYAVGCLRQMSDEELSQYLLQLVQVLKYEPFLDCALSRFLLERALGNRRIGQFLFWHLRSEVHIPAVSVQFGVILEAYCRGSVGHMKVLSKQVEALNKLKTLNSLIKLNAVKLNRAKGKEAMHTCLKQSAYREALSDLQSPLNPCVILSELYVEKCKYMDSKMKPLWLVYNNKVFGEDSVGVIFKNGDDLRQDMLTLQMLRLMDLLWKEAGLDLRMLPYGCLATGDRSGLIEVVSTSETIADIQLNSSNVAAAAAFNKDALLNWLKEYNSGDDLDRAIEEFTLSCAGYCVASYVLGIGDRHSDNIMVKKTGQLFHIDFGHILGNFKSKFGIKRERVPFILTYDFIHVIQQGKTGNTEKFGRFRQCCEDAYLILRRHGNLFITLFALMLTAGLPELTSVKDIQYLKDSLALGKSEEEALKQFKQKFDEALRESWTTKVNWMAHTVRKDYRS
# T2 sequence (P27986 whole entry partner): as the sequence (P27986 whole entry partner) above
# T4 sequence (Q8NEB9 whole entry): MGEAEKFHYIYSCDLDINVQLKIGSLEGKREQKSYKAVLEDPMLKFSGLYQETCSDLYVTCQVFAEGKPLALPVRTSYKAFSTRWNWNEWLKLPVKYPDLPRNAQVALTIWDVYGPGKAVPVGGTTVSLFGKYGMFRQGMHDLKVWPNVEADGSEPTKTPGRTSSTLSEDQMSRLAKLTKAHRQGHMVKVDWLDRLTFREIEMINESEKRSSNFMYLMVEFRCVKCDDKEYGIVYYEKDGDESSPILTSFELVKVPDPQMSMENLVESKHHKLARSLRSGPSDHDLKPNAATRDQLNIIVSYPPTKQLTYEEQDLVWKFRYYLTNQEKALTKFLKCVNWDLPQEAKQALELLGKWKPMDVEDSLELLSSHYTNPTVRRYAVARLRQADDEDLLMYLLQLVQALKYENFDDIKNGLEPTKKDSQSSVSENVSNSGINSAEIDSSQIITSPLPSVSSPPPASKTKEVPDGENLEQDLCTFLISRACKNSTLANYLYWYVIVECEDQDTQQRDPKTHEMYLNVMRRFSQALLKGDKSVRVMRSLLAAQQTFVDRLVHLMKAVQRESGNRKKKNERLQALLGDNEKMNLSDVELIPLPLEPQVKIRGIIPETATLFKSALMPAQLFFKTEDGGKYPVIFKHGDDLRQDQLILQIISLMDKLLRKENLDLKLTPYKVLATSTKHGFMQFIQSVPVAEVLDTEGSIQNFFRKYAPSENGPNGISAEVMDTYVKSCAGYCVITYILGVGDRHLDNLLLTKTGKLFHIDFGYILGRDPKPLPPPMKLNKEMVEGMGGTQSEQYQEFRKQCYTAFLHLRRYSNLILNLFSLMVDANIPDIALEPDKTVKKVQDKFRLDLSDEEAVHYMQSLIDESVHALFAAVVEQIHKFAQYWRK
Compound,inhibition at 1.11 µM (PI3Kalpha),inhibition at 1.11 µM (PI3Kbeta),pIC50 (PI3Kbeta),inhibition at 1.11 µM (PI3Kgamma),inhibition at 1.11 µM (VPS34),inhibition at 1.11 µM (PI3Kdelta),PI3Kalpha % inh (PI3Kalpha),PI3Kbeta % inh (PI3Kbeta),PI3Kgamma % inh (PI3Kgamma),VPS34 % ihn (VPS34),PI3Kdelta % inh (PI3Kdelta)
"O=C1NCCC(c2ccc(Cl)cc2)c2cc(-c3ccncc3)sc21 (racemic) [Compound 8, 4-(4-chlorophenyl)-2-pyridin-4-yl-4,5,6,7-tetrahydro-8H-thieno[2,3-c]azepin-8-one]",2.05%,102%,> 7.00,21.9%,2.55%,59.2%,,,,,
"O=C1CCC(c2ccc(Cl)cc2)c2cc(-c3ccncc3)sc21 (racemic) [Compound 13, 4-(4-chlorophenyl)-2-pyridin-4-yl-5,6-dihydro-1-benzothiophen-7(4H)-one]",3.1%,102%,> 7.00,10.8%,6.6%,55.7%,,,,,
"O=S1(=O)NCC(O)(c2ccc(Cl)cc2)c2cc(-c3ccncc3)sc21 (racemic) [Compound 26, 4-(4-chlorophenyl)-6-pyridin-4-yl-3,4-dihydro-2H-thieno[3,2-e][1,2]thiazin-4-ol 1,1-dioxide]",6.6%,105%,> 7.00,11.7%,1.2%,37.9%,,,,,
"CC1(C)C(=O)c2sc(N3CCOCC3)cc2C1(C)c1ccc(Cl)cc1 (racemic) [Compound 118, 4-(4-chlorophenyl)-4,5,5-trimethyl-2-morpholino-4H-cyclopenta[b]thiophen-6(5H)-one]",19.7%,63%,,5.03%,9.51%,54.6%,,,,,
"COC(=O)[C@@H]1C(=O)c2sc(-c3ccncc3)cc2[C@H]1c1ccc(Cl)cc1 (relative stereo) [Compound 29, trans-methyl 4-(4-chlorophenyl)-6-oxo-2-(pyridin-4-yl)-5,6-dihydro-4H-cyclopenta[b]thiophene-5-carboxylate]",6%,87.8%,6.00 to 7.00,4.6%,1.4%,20.9%,,,,,
"O=S1(=O)NCC(O)(c2ccc(Cl)cc2)c2cc(-c3ccncc3)sc21 (single isomer, unassigned) [Compound 2, 4-(4-chlorophenyl)-6-pyridin-4-yl-3,4-dihydro-2H-thieno[3,2-e][1,2]thiazin-4-ol 1,1-dioxide]",,,> 7.00,,,,3.200%,110.400%,21.200%,4.300%,63.100%
"O=S1(=O)NCC(O)(c2ccc(Cl)cc2)c2cc(-c3ccncc3)sc21 (single isomer, unassigned) [Compound 9, 4-(4-chlorophenyl)-6-pyridin-4-yl-3,4-dihydro-2H-thieno[3,2-e][1,2]thiazin-4-ol 1,1-dioxide]",3.6%,,6.00 to 7.00,,,,,67.200%,3.300%,−2.200%,41.900%
"O=C1NCCC(c2ccc(Cl)cc2)c2cc(-c3ccncc3)sc21 (single isomer, unassigned) [Compound 21, 4-(4-chlorophenyl)-2-pyridin-4-yl-4,5,6,7-tetrahydro-8H-thieno[2,3-c]azepin-8-one]",6.07%,,> 7.00,,9.1%,,,111.967%,24.700%,,79.150%
"O=C1CCC(c2ccc(Cl)cc2)c2cc(-c3ccncc3)sc21 (single isomer, unassigned) [Compound 22, 4-(4-chlorophenyl)-2-pyridin-4-yl-5,6-dihydro-1-benzothiophen-7(4H)-one]",,,> 7.00,14.2%,4.4%,44.5%,0.600%,97.500%,,,
"N#Cc1c(N2CCOCC2)sc2c1C(c1ccc(Cl)cc1)OC2=O (centres unmarked) [Compound 3, 4-(4-chlorophenyl)-2-morpholin-4-yl-6-oxo-4,6-dihydrothieno[2,3-c]furan-3-carbonitrile]",10.8%,65.7%,6.00 to 7.00,,-2.5%,,,,,,
O=C1N[C@@H](C(=O)NCCO)[C@H](c2ccc(Cl)cc2)c2cc(N3CCOCC3)sc21 [Compound 153],,,,9.08%,,39.8%,20.40%,87.14%,,,
CC(C)NC(=O)[C@@H]1NC(=O)c2sc(N3CCOCC3)cc2[C@H]1c1ccc(Cl)cc1 [Compound 162],7.94%,70.6%,,3.59%,,41.8%,,,,,
N#Cc1c(N2CCOCC2)sc2c1C(c1ccc3ccccc3c1)NC2=O (centres unmarked) [Compound 169],50.6%,99.7%,,71.3%,,98.2%,,,,,
O=C1N[C@@H](C(=O)NCCCO)[C@H](c2ccc(Cl)cc2)c2cc(N3CCOCC3)sc21 [Compound 170],,,,12.5%,,51.6%,22.53%,83.73%,,,
O=C1NCCC(c2ccc3ccccc3c2)c2cc(N3CCOCC3)sc21 (centres unmarked) [Compound 175],66.9%,112%,,43.8%,,112%,,,,,
"O=C1NCC(c2ccc(Cl)c(Cl)c2)c2cc(N3CCOCC3)sc21 (centres unmarked) [Compound 176, 4-(3,4-dichlorophenyl)-2-morpholino-5,6-dihydrothieno[2,3-c]pyridin-7(4H)-one]",,,,60.1%,,108%,28.06%,105.20%,,,
Cc1cc(C2CNC(=O)c3sc(N4CCOCC4)c(C#N)c32)ccc1Cl (centres unmarked) [Compound 190],57.5%,123%,,35.8%,,101%,,,,,
CCNC(=O)[C@@H]1NC(=O)c2sc(N3CCOCC3)cc2[C@H]1c1ccc(Cl)cc1 [Compound 197],,84.1%,,9.08%,,47.4%,19.34%,,,,
